{"source": "patent US11065274B2", "about": "“Prevention and treatment for microbial infections” (University of Rochester, priority 2015, dated 2021)", "key": {"[1]": {"tested_on": "Enterococcus faecalis V583"}, "[2]": {"tested_on": "S. aureus", "source_text": "(§1) Dose response measures of the antimicrobial activity of various concentrations (0 to 8% active agent) were used to define the optimal concentration of each agent alone and in combination."}, "[3]": {"tested_on": "Acinetobacter baumannii 983709"}, "[4]": {"tested_on": "A. baumannii", "source_text": "as §1"}, "[5]": {"tested_on": "Staphylococcus aureus UAMS-1"}, "[6]": {"tested_on": "Escherichia coli 8307"}, "[7]": {"tested_on": "Enterococcus faecium 824-05"}, "[8]": {"tested_on": "P. aeruginosa", "conditions": "P. aeruginosa wound; 2% agent in PEG (combination 1%+1%), twice a day for three days", "procedure": "(§2) Treatments were twice a day for a total of three days, at which point the wound bacterial burden was measured."}, "[9]": {"tested_on": "Pseudomonas aeruginosa PA01"}, "[10]": {"tested_on": "Klebsiella pneumoniae CKP4"}, "[11]": {"tested_on": "S. aureus", "conditions": "2% agent (combination 1% silver sulfadiazine and 1% zinc pyrithione), 3 day", "procedure": "as §2"}, "[12]": {"tested_on": "Enterobacter cloacae Clinical Isolate"}, "[13]": {"tested_on": "P. aeruginosa", "source_text": "as §1"}, "[14]": {"tested_on": "48 hour established Pseudomonas aeruginosa biofilms"}, "[15]": {"tested_on": "24 hour established A. baumannii biofilms"}, "[16]": {"conditions": "0 to 8% active agent (ZnPt ˜0.015 to 0.25%; combination 0.015% to 4%)"}}, "data": [{"substance": "zinc pyrithione [ZnPt]", "values": [{"measurement": "MIC", "setting": "[1]", "value": 2, "unit": "µg/mL"}, {"measurement": "antimicrobial activity in PEG-formulation", "setting": "[2]", "value": "exhibited antimicrobial activity"}, {"measurement": "dose response of antimicrobial activity in PEG ointment", "setting": "[2]; [16]", "value": "dose-dependent increase in antimicrobial activity"}, {"measurement": "minimum inhibitory concentration", "setting": "[3]; Acinetobacter baumannii", "value": 2, "unit": "µg/mL"}, {"measurement": "MIC", "setting": "[3]; Acinetobacter baumannii 983709", "value": 2, "unit": "µg/mL"}, {"measurement": "dose response of antimicrobial activity in PEG ointment", "setting": "[4]; [16]", "value": "dose-dependent increase in antimicrobial activity"}, {"measurement": "antimicrobial activity in PEG-formulation", "setting": "[4]; 1% agent or 1% combination (0.5% each)", "value": "exhibited antimicrobial activity"}, {"measurement": "minimum inhibitory concentration", "setting": "[5]; Staphylococcus aureus", "value": 2, "unit": "µg/mL"}, {"measurement": "MIC", "setting": "[5]; Staphylococcus aureus UAMS-1", "value": 2, "unit": "µg/mL"}, {"measurement": "minimum inhibitory concentration", "setting": "[6]; Escherichia coli", "value": 1, "unit": "µg/mL"}, {"measurement": "MIC", "setting": "[6]; Escherichia coli 8307", "value": 1, "unit": "µg/mL"}, {"measurement": "minimum inhibitory concentration", "setting": "[7]; Enterococcus faecium", "value": 2, "unit": "µg/mL"}, {"measurement": "MIC", "setting": "[7]; Enterococcus faecium 824-05", "value": 2, "unit": "µg/mL"}, {"measurement": "decrease in bacterial burden", "setting": "[8]", "value": 1.2, "unit": "log"}, {"measurement": "MIC", "setting": "[9]; Pseudomonas aeruginosa PA01", "value": 16, "unit": "µg/mL"}, {"measurement": "minimum inhibitory concentration", "setting": "[9]; planktonic P. aeruginosa", "value": 16, "unit": "µg/mL"}, {"measurement": "minimum inhibitory concentration", "setting": "[10]; Klebsiella pneumoniae", "value": 2, "unit": "µg/mL"}, {"measurement": "MIC", "setting": "[10]; Klebsiella pneumoniae CKP4", "value": 2, "unit": "µg/mL"}, {"measurement": "animals completed cleared of S. aureus", "setting": "[11]", "value": "6 of 10"}, {"measurement": "minimum inhibitory concentration", "setting": "[12]; Enterbacter cloacae", "value": 4, "unit": "µg/mL"}, {"measurement": "MIC", "setting": "[12]; Enterobacter cloacae Clinical Isolate", "value": 4, "unit": "µg/mL"}, {"measurement": "dose response of antimicrobial activity in PEG ointment", "setting": "[13]; P. aeruginosa, 0 to 8% active agent (ZnPt ˜0.015 to 0.25%; combination 0.015% to 4%)", "value": "dose-dependent increase in antimicrobial activity"}, {"measurement": "antimicrobial activity in PEG-formulation", "setting": "[13]; Pseudomonas aeruginosa", "value": "exhibited antimicrobial activity"}, {"measurement": "reduction in biofilm associated Pseudomonas aeruginosa", "setting": "[14]; 50 μM (15.8 μg ml^−1), 48 hour biofilm", "value": 1, "unit": "log"}, {"measurement": "antibiofilm activity toward P. aeruginosa", "setting": "[14]; low concentrations (4 to 64 μg ml^−1)", "value": "comparable to that of silver sulfadiazine"}, {"measurement": "antibiofilm activity toward A. baumannii biofilms", "setting": "[15]; comparison of agents alone and in combination", "value": "improved activity"}, {"measurement": "reduction in biofilm associated A. baumannii", "setting": "[15]; highest concentration tested (128 μg ml^−1; combination 64 μg ml^−1 of each agent)", "value": 3.5, "unit": "log"}]}]}
